# Measured values: patent publication US20060183797A1, “Fatty alcohols and fatty acid esters useful for treatment of inflammation” (priority 2001, published 2006)
# “And” between values parts separate entries of the source, which are not always exact repeats. Equal values may be shown once.
# Key:
# Type in all cases: in vivo
# adjuvant arthritis (AA) [1] = experiment: Adjuvant arthritis (AA) in Lewis rats, inhibition of inflammation; conditions: for % Inhibition (100 μl) of the inflammation of adjuvant arthritis: 100 μl SC once, 14 days before induction of AA or on day 12 after induction, day of maximal inflammation
# Method: AA was induced by immunizing inbred 8-10-week old Lewis rats (Harlan-Olac Limited, Blackthorn, Oxon, UK), at the base of the tail with 1 mg/0.1 ml of killed Mycobacterium tuberculosis (Sigma) in IFA (Sigma) as described (Pearson, 1956). Arthritis of the limbs was noted to develop 12-14 days later and was scored on a scale of 0-16 summing the severity of the inflammation of each of the 4 limbs on a scale of 0-4, as described (Holoshitz et al., 1983). The peak of the arthritis usually was observed around day 26 after immunization.
# Control rats were untreated or treated by injections of saline. A positive control of immunosuppression was obtained by including a group of rats treated with the corticosteroid agent dexamethasone (200 μg) administered intraperitoneally every other day beginning on day 12 after induction.
# The immunomodulator of the invention (100 μl oleyl alcohol, glycerol mono-oleate, linolenyl alcohol or cetyl alcohol) was administered subcutaneously (SC) once 14 days before induction of AA or on day 12 after induction of AA. The percent inhibition of inflammation measured on the day of maximal inflammation was computed as follows: [formula] […]
# [2] = tested on: experimental autoimmune encephalomyelitis (EAE); experiment: Experimental autoimmune encephalomyelitis (EAE) in Lewis rats; conditions: 0.5 ml/kg SC once, 14 days before EAE induction
# adjuvant arthritis (AA) [3] = experiment: Adjuvant arthritis (AA) in Lewis rats, inhibition of inflammation; conditions: for suppression of inflammation on day of peak disease: day 26
# [4] = vs non-treated control, listed as OA
compound,measurement,setting,value
"CCC=CCC=CC/C=C\CCCCCCCCO [Linolenyl alcohol, cis-9,12,15-octadecatrienol]",% Inhibition (100 μl) of the inflammation of adjuvant arthritis,adjuvant arthritis (AA) [1],75%
"CCCCCCCC/C=C\CCCCCCCC(=O)OCC(O)CO (stereo not drawn) [Glycerol mono-oleate, glycerol monooleate]",% Inhibition (100 μl) of the inflammation of adjuvant arthritis,adjuvant arthritis (AA) [1],98%
"CCCCCCCC/C=C\CCCCCCCC(=O)O [oleic acid, cis-9-octadecenoic acid, reference compound]",effect on inflammation of adjuvant arthritis (in words),"adjuvant arthritis (AA) [1]; Lewis rats, Example 1",no effect
"CCCCCCCC/C=C\CCCCCCCCO [Oleyl alcohol, cis-9-octadecenol]",% Incidence of disease,[2],50.0%
same,effect on EAE clinical parameters (in words),[2],beneficial effect on all the clinical parameters
same,Mean Onset of disease (Day No.),[2]; rats without EAE counted as 25 days,18.6 Day No.
same,Disease duration,[2]; rats without EAE counted as zero,2.0 days
same,GMS (group mean score),[2]; scale 0-5,0.22
same,MMS (mean maximal score),[2]; scale 0-5,0.88
same,% Activity GMS,[2]; vs non-treated control,77.1%
same,% Activity Incidence,[2]; vs non-treated control,33.3%
same,% Activity MMS,[2]; vs non-treated control,63%
same,% Activity GMS,[2]; [4],77.1%
same,% Activity MMS,[2]; [4],63.0%
same,% Inhibition (100 μl) of the inflammation of adjuvant arthritis,adjuvant arthritis (AA) [1],78%
same,suppression of inflammation on day of peak disease,adjuvant arthritis (AA) [3]; 10 μl SC once 14 days before induction,14%
same,suppression of inflammation on day of peak disease,adjuvant arthritis (AA) [3]; 50 μl SC once 14 days before induction,61%
same,suppression of inflammation on day of peak disease,adjuvant arthritis (AA) [3]; 100 μl SC once 14 days before induction,78%
same,suppression of inflammation on day of peak disease,adjuvant arthritis (AA) [3]; 500 μl SC once 14 days before induction,90%
same,suppression of inflammation,"adjuvant arthritis (AA) [3]; 500 μl, two further experiments",96% and 91%
"CCCCCCCCCCCCCCCCO [Cetyl alcohol, cetyl alcohol]",% Inhibition (100 μl) of the inflammation of adjuvant arthritis,adjuvant arthritis (AA) [1],66%
